Laboratory results: patent US20100115663A1, “Acetyl-CoA Carboxylase Herbicide Resistant Sorghum” (priority 2007, published 2010)

Tests used:
[1] = tested on: Tx2783, an herbicide susceptible elite sorghum genotype; experiment: Greenhouse herbicide spray selection, susceptible check; format: in vivo
Description: (§1) Seeds of 83 wild sorghum populations from Bolivia were planted in a greenhouse for comparison with Tx2783, an herbicide susceptible elite sorghum genotype. Wild sorghum genotypes were planted in flats containing MetroMix 360 potting soil (Sun Gro) and greenhouse grown. Tx2783 was planted with the wild accessions in each flat for comparison. In one selection using clethodim, plants were sprayed with 0.09 lb ai clethodim acre^−1 at 18 days after planting. […] In one selection using fluazifop-P, flats with Tx2783 and wild accessions were sprayed with a rate of 0.12 lb ai fluazifop-P acre^−1 at 18 days after planting and with 0.36 lb ai fluazifop-P acre^−1 at 32 days after planting. […] In a third experiment, plants were sprayed with a rate of 0.05 lb ai quizalofop acre^−1 at 18 days after planting and with 0.11 lb ai quizalofop acre^−1 at 32 days after planting.

[2] = tested on: wild sorghum populations from Bolivia; experiment: Greenhouse herbicide spray selection, wild accessions; format: in vivo; details: 83 wild populations
Description: as §1

[3] = tested on: Bol-71 wild sorghum genotype; experiment: Greenhouse herbicide spray selection, Bol-71; format: in vivo
Description: as §1

[4] = tested on: Pioneer 84G62 (herbicide susceptible control); experiment: Mode of inheritance greenhouse spray test, susceptible control; format: in vivo, sorghum; details: 0.045 lb ai fluazifop-P acre^-1 at 14 days after planting; n=3
Description: (§2) The mode of inheritance of herbicide tolerance was determined by planting seeds of Bol-71, F1 generation of cross ATx623 x Bol-71, and Pioneer 84G62 (herbicide susceptible control) in flats containing MetroMix 360 potting soil in a greenhouse using a randomized complete block design (n=3). The plants were sprayed with 0.045 lb ai fluazifop-P acre^−1 at 14 days after planting. Pioneer 84G62 died between 12-16 days after spraying.

Bol-71 = experiment: Mode of inheritance greenhouse spray test, Bol-71; format: in vivo, wild sorghum; details: 0.045 lb ai fluazifop-P acre^-1 at 14 days after planting; n=3
Description: as §2

[5] = tested on: F1 generation of cross ATx623 x Bol-71; experiment: Mode of inheritance greenhouse spray test, F1 hybrid; format: in vivo, sorghum; details: 0.045 lb ai fluazifop-P acre^-1 at 14 days after planting; n=3
Description: as §2

[6] = 0.12 lb ai fluazifop-P acre^-1 at 18 days and 0.36 lb ai acre^-1 at 32 days after planting
[7] = 0.05 lb ai quizalofop acre^-1 at 18 days and 0.11 lb ai acre^-1 at 32 days after planting

Row | Structure (SMILES) | plant response to spraying [1, 6] | plant response to spraying [2, 6] | tolerance to herbicide [3, 6] | time at which plants died [4] | herbicide damage (Bol-71) | herbicide damage [5] | plant response to spraying [1, 7] | plant response to spraying [2, 7] | tolerance to herbicide [3, 7]
1 | C[C@@H](Oc1ccc(Oc2ccc(C(F)(F)F)cn2)cc1)C(=O)O [fluazifop-P] | died | many of the wild sorghums died | high levels of tolerance | 12-16 days after spraying | no herbicide damage | no herbicide damage | – | – | –
2 | CC(Oc1ccc(Oc2cnc3cc(Cl)ccc3n2)cc1)C(=O)O (stereo not drawn) [quizalofop] | – | – | – | – | – | – | died | many of the wild sorghums died | high levels of tolerance
